Source: patent US20100316743A1, “INHIBITION OF THE FORMATION OF AGEs” (BASF BEAUTY CARE SOLUTIONS FRANCE S.A.S., priority 2007, published 2010)

Assays:
[1] = biological target: bovine serum albumin (BSA) (Bos taurus, UniProt P02769); experiment: Inhibition of the formation of AGEs in a BSA/reducing sugar solution, measured by fluorescence; type: biochemical; conditions: fluorescence versus positive control 1.5 mM aminoguanidine
Method: The preparation of a solution containing a protein and a reducing sugar was carried out extemporaneously as follows: a solution of bovine serum albumin (BSA) at a concentration between 1.5 μM and 1.5M, preferably between 15 μM and 500 μM, was incubated with a solution of a reducing sugar such as glucose, fructose, ribose, etc., preferably with glucose, at a concentration between 0.1M and 10M, preferably between 0.5M and 5M. […]
The protein/reducing sugar solution prepared in 1 was incubated with or without (negative control) the presence of an extract obtained in 2, at a temperature between 40 and 60° C., preferably at around 50° C. for 1 to 5 weeks, preferably for 3 weeks. The active substances obtained by extraction according to the protocol described in paragraph 2—extracts were tested at a concentration between 0.001 and 10%, preferably between 0.01 and 5% and more particularly at 1% by weight in the protein/reducing sugar preparation. The positive control used was aminoguanidine at a concentration between 15 μM and 150 mM, preferably at a concentration between 1.5 mM and 15 mM in water. The measure of the inhibition of the AGEs was carried out by measuring the fluorescence (excitation wavelength between 350 and 375 nm, preferably at 355 nm; emission wavelength between 420 and 450 nm, preferably at 430 nm). The inhibition was calculated by deducing the resulting value of the interaction of the plant extracts with the molecules of the reaction medium (quenching).
The preparation of a protein/reducing sugar solution was carried out according to the method described in Example 1 (paragraph 1). The molecules were tested at a concentration between 1×10^−7 and 1×10^−1%, and preferably between 1×10^−5 and 1×10^−1%, and in particular at 1×10^−1%, for example in water or in DMSO.

[2] = kidneys; cited from earlier work
[3] = characterized molecules, in particular at 1×10^−1% in water or DMSO, BSA/reducing sugar
[4] = Example 4, comparison with anthocyanins of the prior art, quenching taken into account

Sequence of bovine serum albumin (BSA) (P02769 25-607): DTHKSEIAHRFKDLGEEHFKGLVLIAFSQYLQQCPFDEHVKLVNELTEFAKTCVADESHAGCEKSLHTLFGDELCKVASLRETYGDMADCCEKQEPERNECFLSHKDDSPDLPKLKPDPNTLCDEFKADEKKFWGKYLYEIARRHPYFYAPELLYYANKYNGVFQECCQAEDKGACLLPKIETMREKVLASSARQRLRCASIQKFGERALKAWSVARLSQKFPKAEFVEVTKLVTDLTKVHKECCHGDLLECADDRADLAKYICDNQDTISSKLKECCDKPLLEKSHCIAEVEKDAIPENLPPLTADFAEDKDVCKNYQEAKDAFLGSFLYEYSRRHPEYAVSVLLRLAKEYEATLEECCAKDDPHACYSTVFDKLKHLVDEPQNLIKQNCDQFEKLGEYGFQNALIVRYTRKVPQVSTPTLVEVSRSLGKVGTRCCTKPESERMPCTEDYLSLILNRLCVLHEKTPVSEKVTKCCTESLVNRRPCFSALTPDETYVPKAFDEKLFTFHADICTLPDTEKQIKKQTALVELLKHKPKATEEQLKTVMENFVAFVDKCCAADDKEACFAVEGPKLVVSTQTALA

| SMILES | % inhibition [1, 3] [%] | % inhibition [1, 4] [%] | other results |
| --- | --- | --- | --- |
| O=C1C=CC(=O)c2cc3ccccc3cc21 [1,4-Anthraquinone] | 89.6 | – | – |
| Nc1c(CO)ccc2c1C(=O)c1ccccc1C2=O [1-Amino-2-hydroxymethylanthraquinone] | 66.0 | – | – |
| Nc1ccc(O)cc1 [4-Aminophenol] | 78.5 | – | – |
| O=C(/C=C/c1ccc(O)cc1)c1ccccc1 [4-Hydroxychalcone] | 81.4 | – | – |
| N=C(N)NN [Aminoguanidine] | – | – | reduction of the excretion of albumin in diabetics [2]: 90% |
| Oc1ccccc1O [Catechol] | 88.3 | – | – |
| OC[C@H]1O[C@@H](Oc2cc3c(O)cc(O)cc3[o+]c2-c2ccc(O)c(O)c2)[C@H](O)[C@@H](O)[C@H]1O.[Cl-] [Idaein chloride, reference compound] | – | 0 | – |
| OC[C@H]1O[C@@H](Oc2cc3c(O)cc(O)cc3[o+]c2-c2ccc(O)c(O)c2)[C@H](O)[C@@H](O)[C@@H]1O.[Cl-] [Kuromanin Chloride, reference compound] | – | 0 | – |
| COc1cc(-c2[o+]c3cc(O)cc(O[C@@H]4O[C@H](CO)[C@@H](O)[C@H](O)[C@H]4O)c3cc2O[C@@H]2O[C@H](CO)[C@@H](O)[C@H](O)[C@H]2O)cc(OC)c1O.[Cl-] [Malvin Chloride, reference compound] | – | 0 | – |
| OC[C@H]1O[C@@H](Oc2cc3c(O[C@@H]4O[C@H](CO)[C@@H](O)[C@H](O)[C@H]4O)cc(O)cc3[o+]c2-c2ccc(O)cc2)[C@H](O)[C@@H](O)[C@@H]1O.[Cl-] [Perlargonin chloride, reference compound] | – | 0 | – |
| O=C1C[C@@H](c2ccc(O)cc2)Oc2cc(O[C@@H]3O[C@H](CO)[C@@H](O)[C@H](O)[C@H]3O)cc(O)c21 [Prunin] | 67.9 | – | – |
| O=C([O-])c1ccccc1-c1c2cc(I)c(=O)c(I)c-2oc2c(I)c([O-])c(I)cc12.[Na+].[Na+] [Sodium erythrosine] | 95.6 | – | – |
